# Data: patent US8871753B2, “Macrocyclic compounds and their use as kinase inhibitors” (Incyte Corporation, priority 2008, dated 2014)
# Counter-ions that a name gives are not always drawn. Like-named read-outs stand apart in the source and are kept apart here.
# Columns and labels:
# Type in all cases: biochemical
# [1] = molecular target: T1, human JAK1 (a.a. 837-1142) (Homo sapiens, UniProt P23458); experiment: In vitro JAK kinase assay (HTRF, phosphorylation of a biotinylated peptide), JAK1; details: read-out: JAK1 IC50
# T1 construct: human JAK1 (a.a. 837-1142); His tag (N); made in house; host or cells: insect cells (baculovirus)
# T1 sequence (P23458 849-1154): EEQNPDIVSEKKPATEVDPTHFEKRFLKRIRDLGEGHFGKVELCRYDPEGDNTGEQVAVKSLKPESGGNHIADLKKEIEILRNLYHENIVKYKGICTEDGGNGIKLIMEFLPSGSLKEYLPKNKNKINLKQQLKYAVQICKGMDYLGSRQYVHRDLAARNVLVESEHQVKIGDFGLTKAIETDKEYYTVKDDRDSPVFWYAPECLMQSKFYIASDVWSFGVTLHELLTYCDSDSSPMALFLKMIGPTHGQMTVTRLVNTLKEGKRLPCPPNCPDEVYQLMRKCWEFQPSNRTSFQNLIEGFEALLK
# Procedure, shortened: (§1)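 Kinase activity was measured as phosphorylation of a biotinylated peptide, with ATP at 90 μM for JAK1, 30 μM for JAK2 and 3 μM for JAK3. Reactions ran 1 hr at room temperature, were stopped with EDTA plus SA-APC and Eu-Py20, and were read by HTRF after 40 minutes of antibody binding.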
# [2] = molecular target: T2, human JAK2 (a.a. 828-1132) (Homo sapiens, UniProt O60674); experiment: In vitro JAK kinase assay (HTRF, phosphorylation of a biotinylated peptide), JAK2
# T2 construct: JAK2 (a.a. 828-1132); His tag (N); made in house; host or cells: insect cells (baculovirus)
# T2 sequence (O60674 828-1132): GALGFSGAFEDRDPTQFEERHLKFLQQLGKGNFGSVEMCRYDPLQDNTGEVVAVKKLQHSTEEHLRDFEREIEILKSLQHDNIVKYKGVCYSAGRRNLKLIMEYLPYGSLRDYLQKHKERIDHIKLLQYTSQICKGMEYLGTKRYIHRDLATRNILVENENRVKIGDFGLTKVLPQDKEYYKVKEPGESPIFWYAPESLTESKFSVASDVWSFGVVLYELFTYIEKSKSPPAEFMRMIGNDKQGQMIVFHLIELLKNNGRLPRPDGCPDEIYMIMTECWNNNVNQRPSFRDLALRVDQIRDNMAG
# Procedure, shortened: as §1
# [3] = molecular target: T3, human JAK3 (a.a. 781-1124) (Homo sapiens, UniProt P52333); experiment: In vitro JAK kinase assay (HTRF, phosphorylation of a biotinylated peptide), JAK3
# T3 construct: JAK3 (a.a. 781-1124); His tag (N); made in house; host or cells: insect cells (baculovirus)
# T3 sequence (P52333 781-1124): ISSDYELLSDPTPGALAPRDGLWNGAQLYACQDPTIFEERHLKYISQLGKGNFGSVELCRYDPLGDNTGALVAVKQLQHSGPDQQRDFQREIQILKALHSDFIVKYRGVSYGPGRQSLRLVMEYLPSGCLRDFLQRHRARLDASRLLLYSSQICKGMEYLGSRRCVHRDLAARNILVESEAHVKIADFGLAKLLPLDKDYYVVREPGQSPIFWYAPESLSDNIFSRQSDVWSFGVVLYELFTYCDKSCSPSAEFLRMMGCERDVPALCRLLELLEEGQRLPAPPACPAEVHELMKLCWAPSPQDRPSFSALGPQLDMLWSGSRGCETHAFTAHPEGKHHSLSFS
# Description: The catalytic activity of JAK1, JAK2 or JAK3 was assayed by measuring the phosphorylation of a biotinylated peptide. The phosphorylated peptide was detected by homogenous time resolved fluorescence (HTRF). […] The ATP concentration in the reactions was 90 μM for JAK1, 30 μM for JAK2 and 3 μM for JAK3. Reactions were carried out at room temperature for 1 hr and then stopped with 20 μL 45 mM EDTA, 300 nM SA-APC, 6 nM Eu-Py20 in assay buffer (Perkin Elmer, Boston, Mass.). Binding to the Europium labeled antibody took place for 40 minutes and HTRF signal was measured on a Fusion plate reader (Perkin Elmer, Boston, Mass.).
# The catalytic activity of JAK1, JAK2 or JAK3 was assayed by measuring the phosphorylation of a biotinylated peptide. The phosphorylated peptide was detected by homogenous time resolved fluorescence (HTRF). […] Reactions were carried out at room temperature for 1 hr and then stopped with 20 μL 45 mM EDTA, 300 nM SA-APC, 6 nM Eu-Py20 in assay buffer (Perkin Elmer, Boston, Mass.). Binding to the Europium labeled antibody took place for 40 minutes and HTRF signal was measured on a Fusion plate reader (Perkin Elmer, Boston, Mass.).
# [4] = molecular target: TYK2 (Homo sapiens, UniProt P29597); experiment: TYK2 kinase inhibition (Table A1)
# TYK2, sequence (P29597 whole entry): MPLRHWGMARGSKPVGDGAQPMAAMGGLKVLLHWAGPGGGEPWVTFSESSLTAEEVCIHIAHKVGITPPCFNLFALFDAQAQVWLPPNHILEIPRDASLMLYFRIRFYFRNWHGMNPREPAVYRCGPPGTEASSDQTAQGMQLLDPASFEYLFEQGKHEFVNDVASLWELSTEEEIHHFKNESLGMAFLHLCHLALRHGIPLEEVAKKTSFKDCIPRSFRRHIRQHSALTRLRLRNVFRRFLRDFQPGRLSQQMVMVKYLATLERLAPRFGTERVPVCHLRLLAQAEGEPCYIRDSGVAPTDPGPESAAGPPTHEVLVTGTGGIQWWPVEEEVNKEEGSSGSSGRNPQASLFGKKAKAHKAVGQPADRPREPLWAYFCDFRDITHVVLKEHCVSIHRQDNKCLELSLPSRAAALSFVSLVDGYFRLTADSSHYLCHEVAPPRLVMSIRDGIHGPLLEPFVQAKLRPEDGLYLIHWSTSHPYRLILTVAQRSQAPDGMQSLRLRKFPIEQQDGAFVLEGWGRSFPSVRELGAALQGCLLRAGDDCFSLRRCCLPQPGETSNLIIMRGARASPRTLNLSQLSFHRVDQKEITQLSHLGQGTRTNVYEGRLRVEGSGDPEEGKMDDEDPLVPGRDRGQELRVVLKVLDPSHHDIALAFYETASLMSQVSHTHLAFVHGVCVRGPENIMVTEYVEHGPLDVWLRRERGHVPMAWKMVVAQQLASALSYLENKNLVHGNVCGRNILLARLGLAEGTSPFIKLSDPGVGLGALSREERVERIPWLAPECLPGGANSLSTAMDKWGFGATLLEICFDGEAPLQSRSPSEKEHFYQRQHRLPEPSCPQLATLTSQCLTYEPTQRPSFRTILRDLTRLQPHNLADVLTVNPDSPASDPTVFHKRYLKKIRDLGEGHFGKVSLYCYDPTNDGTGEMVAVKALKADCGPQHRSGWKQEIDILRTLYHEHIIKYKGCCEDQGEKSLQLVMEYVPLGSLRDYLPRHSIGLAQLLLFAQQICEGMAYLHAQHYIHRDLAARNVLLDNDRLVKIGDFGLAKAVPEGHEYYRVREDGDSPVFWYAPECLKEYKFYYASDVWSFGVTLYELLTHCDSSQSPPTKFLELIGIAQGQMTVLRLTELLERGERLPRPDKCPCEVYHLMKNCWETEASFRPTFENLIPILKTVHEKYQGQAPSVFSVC
IC50 ([1]; Table D1) [µM],IC50 ([2]; Table D1) [µM],IC50 ([3]; Table D1) [µM],IC50 ([4]; Table D1) [µM],Structure (SMILES),also measured
0.0081,0.049,> 0.4,0.356,"N#Cc1ccccc1S(=O)(=O)N1CCN(C(=O)COc2ccc3cc2CCc2cncc(c2)Nc2ncc(Cl)c(n2)N3)CC1 [Example D254, 2-{[4-({[6-Chloro-2,4,8,18,22-pentaazatetracyclo[14.3.1.1(3,7).1(9,13)]docosa-1(20),3(22),4,6,9(21),10,12,16,18-nonaen-12-yl]oxy}acetyl)piperazin-1-yl]sulfonyl}benzonitrile bis(trifluoroacetate)]",–
0.025,0.047,> 0.4,> 0.4,"O=C(COc1ccc2cc1CCc1cncc(c1)Nc1ncc(Cl)c(n1)N2)N1CCN(c2nccs2)CC1 [Example D230, 6-Chloro-12-{2-oxo-2-[4-(1,3-thiazol-2-yl)piperazin-1-yl]ethoxy}-2,4,8,18,22-pentaazatetracyclo[14.3.1.1(3,7).1(9,13)]docosa-1(20),3(22),4,6,9(21),10,12,16,18-nonaene tris(trifluoroacetate)]",–
0.038,0.288,> 0.4,> 0.4,"O=C(COc1ccc2cc1CCc1cncc(c1)Nc1ncc(Cl)c(n1)N2)N1CCN(C(=O)C2CCCO2)CC1 (centres unmarked) [Example D272, 6-Chloro-12-{2-oxo-2-[4-(tetrahydrofuran-2-ylcarbonyl)piperazin-1-yl]ethoxy}-2,4,8,18,22-pentaazatetracyclo[14.3.1.1(3,7).1(9,13)]docosa-1(20),3(22),4,6,9(21),10,12,16,18-nonaene bis(trifluoroacetate)]",–
0.014,0.049,> 0.4,0.038,"CC(=O)N1CCC(CCNc2ccc3cc2CCc2cncc(c2)Nc2ncc(Cl)c(n2)N3)CC1 [Example D219, N-[2-(1-Acetylpiperidin-4-yl)ethyl]-6-chloro-2,4,8,18,22-pentaazatetracyclo[14.3.1.1(3,7).1(9,13)]docosa-1(20),3(22),4,6,9(21),10,12,16,18-nonaen-12-amine tris(trifluoroacetate)]",–
0.018,0.054,0.355,0.031,"O=C(C[C@H]1CCCNC1)Nc1ccc2cc1CCc1cncc(c1)Nc1ncc(Cl)c(n1)N2 [Example D195, N-[6-Chloro-2,4,8,18,22-pentaazatetracyclo[14.3.1.1(3,7).1(9,13)]docosa-1(20),3(22),4,6,9(21),10,12,16,18-nonaen-12-yl]-2-[(3R)-piperidin-3-yl]acetamidetris(trifluoroacetate)]",–
0.101,0.208,> 0.4,> 0.4,"N#Cc1ccc(N2CCN(C(=O)COc3ccc4cc3CCc3cncc(c3)Nc3ncc(Cl)c(n3)N4)CC2)nc1 [Example D239, 6-[4-({[6-Chloro-2,4,8,18,22-pentaazatetracyclo[14.3.1.1(3,7).1(9,13)]docosa-1(20),3(22),4,6,9(21),10,12,16,18-nonaen-12-yl]oxy}acetyl)piperazin-1-yl]nicotinonitrile tris(trifluoroacetate)]",–
0.0058,0.046,0.144,0.023,"O=C(C[C@@H]1CCCNC1)Nc1ccc2cc1CCc1cncc(c1)Nc1ncc(Cl)c(n1)N2 [Example D194, N-[6-Chloro-2,4,8,18,22-pentaazatetracyclo[14.3.1.1(3,7).1(9,13)]docosa-1(20),3(22),4,6,9(21),10,12,16,18-nonaen-12-yl]-2-[(3S)-piperidin-3-yl]acetamidetris(trifluoroacetate)]",–

# Further lines, the compound ahead of its results:
Structure (SMILES),IC50 ([1]; Table D1) [µM],IC50 ([2]; Table D1) [µM],IC50 ([3]; Table D1) [µM],IC50 ([4]; Table D1) [µM],also measured
"O=C(Nc1cc2cc(c1)Nc1nc(ncc1Cl)Nc1cccc(c1)CC2)C1CCC1 [Example B211, N-[6-Chloro-2,4,8,22-tetraazatetracyclo[14.3.1.1(3,7).1(9,13)]docosa-1(20),3(22),4,6,9(21),10,12,16,18-nonaen-11-yl]cyclobutanecarboxamide trifluoroacetate]",–,–,–,–,IC50 ([1]; Table B1): 0.056 µM; IC50 ([2]; Table B1): 0.02 µM; IC50 ([3]; Table B1): 0.135 µM; IC50 ([4]; Table B1): 0.191 µM
"O=C(Nc1cccc(N2CCOCC2)n1)N1CCC(CCOc2ccc3cc2CCc2cncc(c2)Nc2ncc(Cl)c(n2)N3)CC1 [Example D176, 4-(2-{[6-Chloro-2,4,8,18,22-pentaazatetracyclo[14.3.1.1(3,7).1(9,13)]docosa-1(20),3(22),4,6,9(21),10,12,16,18-nonaen-12-yl]oxy}ethyl)-N-(6-morpholin-4-ylpyridin-2-yl)piperidine-1-carboxamide tris(trifluoroacetate)]",0.124,0.208,> 0.4,> 0.4,–
"O=C(Cc1ccncc1)Nc1ccc2cc1CCc1cccc(c1)Nc1ncc(Cl)c(n1)N2 [Example C40, N-[6-Chloro-2,4,8,22-tetraazatetracyclo[14.3.1.1(3,7).1(9,13)]docosa-1(20),3(22),4,6,9(21),10,12,16,18-nonaen-12-yl]-2-pyridin-4-ylacetamide bis(trifluoroacetate)]",–,–,–,–,IC50 [1]: 0.062 µM; IC50 [2]: 0.056 µM; IC50 [3]: 0.804 µM; IC50 [4]: 0.291 µM
"N#Cc1cccc(NC(=O)N2CCN(c3ccc4cc3CCc3cccc(c3)Nc3ncc(Cl)c(n3)N4)CC2)c1 [Example D89, 4-[6-Chloro-2,4,8,22-tetraazatetracyclo[14.3.1.1(3,7).1(9,13)]docosa-1(20),3(22),4,6,9(21),10,12,16,18-nonaen-12-yl]-N-(3-cyanophenyl)piperazine-1-carboxamide bis(trifluoroacetate)]",0.066,0.0067,0.077,0.053,–
"N#Cc1ccccc1S(=O)(=O)N1CCC(COc2ccc3cc2CCc2cncc(c2)Nc2ncc(Cl)c(n2)N3)C1 (centres unmarked) [Example C57, 2-{[3-({[6-Chloro-2,4,8,18,22-pentaazatetracyclo[14.3.1.1(3,7).1(9,13)]docosa-1(20),3(22),4,6,9(21),10,12,16,18-nonaen-12-yl]oxy}methyl)pyrrolidin-1-yl]sulfonyl}benzonitrile bis(trifluoroacetate)]",–,–,–,–,IC50 [1]: > 0.4 µM; IC50 [2]: 0.288 µM; IC50 [3]: > 0.4 µM; IC50 [4]: > 0.4 µM
"O=C(NCc1ccco1)N1CCC(CCOc2ccc3cc2CCc2cncc(c2)Nc2ncc(Cl)c(n2)N3)CC1 [Example D165, 4-(2-{[6-Chloro-2,4,8,18,22-pentaazatetracyclo[14.3.1.1(3,7).1(9,13)]docosa-1(20),3(22),4,6,9(21),10,12,16,18-nonaen-12-yl]oxy}ethyl)-N-(2-furylmethyl)piperidine-1-carboxamide bis(trifluoroacetate)]",0.052,0.208,> 0.4,> 0.4,–
"Cc1[nH]c2ccccc2c1CC(=O)Nc1ccc2cc1CCc1cccc(c1)Nc1ncc(Cl)c(n1)N2 [Example C34, N-[6-Chloro-2,4,8,22-tetraazatetracyclo[14.3.1.1(3,7).1(9,13)]docosa-1(20),3(22),4,6,9(21),10,12,16,18-nonaen-12-yl]-2-(2-methyl-1H-indol-3-yl)acetamide trifluoroacetate]",–,–,–,–,IC50 [1]: 0.265 µM; IC50 [2]: 0.178 µM; IC50 [3]: 4 µM; IC50 [4]: 0.775 µM
